Measured values from EP0516725B1, “NEW USE OF LINOMIDE (R)” (Pharmacia AB (reg.number 556131-9608), priority 1990, dated 1991).

Columns and labels:
[1] = tested on: spleen T lymphocyte subpopulations; experiment: Spleen T lymphocyte subpopulations by direct immunofluorescence after treatment of mice; assay type: in vivo, C57B1/6 mice; conditions: 160 mg/kg/day in the drinking water for 4 days
Description: C57B1/6 mice were given Linomide® (160 mg/kg/day) in the drinking water for 4 days. Control animals were given ordinary drinking water. […] 134:3956, 1985] and examined for the expression of cell surface markers by direct immunofluorescence. The following FITC-labeled monoclonal antibodies were used: HO-134 (Thy 1.2), GK 1.5 (CD4) and 19. 178c (CD8) [for reference to antibodies see Kalland, T.: Regulation of NK progenitors: Studies with a novel immunmodulator with distinct effects at the precursor level, J. Immunol. 144:4472-6, 1990]. The number of positive cells was determined by counting 400 cells in an epifluoroscence equipped Leitz microscope. Values represent mean ± SD of three mice.

Half life in rats = conditions: rat, in vivo
Half life in humans = conditions: human, in vivo
[2] = Half life in cynomolgus monkeys; assay type: in vivo
Half life in mice = assay type: in vivo
SIVsm = SIVsm infection of cynomolgus monkeys (body weight, CD4 cells, virus isolation, clinical state); conditions: result in words
Description: Nine cynomolgus monkeys (Macaca Fascicularis) were used in this study. The mean body mass was 2600 g and the range was 2260 to 2930 g. The monkeys were housed in single cages in a biosafety level three facility. […] The absence of pre-existing retrovirus was further investigated by cocultivating monkey PBMC (=peripheral blood mononuclear cells) with human PHA-stimulated PBMC and testing of culture supernatants for reverse transcriptase activity.
Intraperitoneal treatment with Linomide® or NaCl started four days before challenge with live virus and subsequently every day (not during weekends) subcutaneosly during the time of follow-up. The follow-up is 75 days after live virus challenge. Monkeys L1-3 were treated with a low dose Linomide® 0.3 mg/kg bw x 2 Monkeys L4-6 were treated with a high dose Linomide® 3 mg/kg bw x 2 Monkeys L7-9 were given sodium chloride x 2 All monkeys were challenged with 10-100 animal ID₅₀ of live SIVsm. Animals were sacrificed when they became moribund.
T-lymphocyte subsets in peripheral blood were determined by immunofluorescence as previously described [Putkonen, P., Warstedt, K., Thorstensson, R., Benthin, R., Albert, J., Lundgren, B., Öberg, B., Norrby, E., Biberfeld, G.: Experimental infection of cynomolgus monkeys (Macaca Fascicularis with simian immunodeficiency virus (SIVsm), J. AIDS 1989:2, 359-365]. Peripheral blood samples were incubated with FITC-conjugated anti-CD4 (OKT4, Ortho) and anti-CD8 (Leu2, Becton Dickinson). The samples were analyzed in a Spectrum III flow cytometer (Ortho Diagnostics).

YAC-1 cells = experiment: Spleen NK activity, conventional 51Cr-release assay after treatment of mice; conditions: 160 mg/kg/day in the drinking water for four days; for % CYTOTOXICITY: 3 mice
[3] = spleen cells, mean ± SD of three mice

CN(C(=O)c1c(O)c2ccccc2n(C)c1=O)c1ccccc1 [Linomide®, N-phenyl-N-methyl-1,2-dihydro-4-hydroxy-1-methyl-2-oxo-quinoline-3-carboxamide]
% Fluorescent cells CD4 [1, 3]: 28±2%
% Fluorescent cells CD8 [1, 3]: 10±3%
% Fluorescent cells Thy 1.2 [1, 3]: 42±5%
distribution of T lymphocyte subpopulations ([1]; result in words): do not significantly altler the distribution of T lymphocyte subpopulations
half-life (Half life in rats): 24 h
half-life (Half life in humans): ~48 h
half life [2]: six
half life (Half life in mice): two
qualitative virus isolation assay (SIVsm; all monkeys (low dose, high dose and control), 14 days after challenge): virus could be isolated from all monkeys
body weight (SIVsm; high dose group (3 mg/kg bw x 2), one monkey): dramatic reduction in body weight
percentage of CD4⁺ cells in peripheral blood (SIVsm; low dose (0.3 mg/kg bw x 2)): essentially unaltered
body weight (SIVsm; monkeys L1-3, 0.6 mg/kg/day): Only a slight weight reduction
clinical condition (SIVsm; monkeys L1-3 = low dose (0.3 mg/kg bw x 2)): remained clinically healthy
% CYTOTOXICITY (YAC-1 cells; Effector cell: Target cell ratio 25:1): 14±4%
% CYTOTOXICITY (YAC-1 cells; Effector cell: Target cell ratio 50:1): 20±4%
% CYTOTOXICITY (YAC-1 cells; Effector cell: Target cell ratio 100:1): 29±5%
NK activity (YAC-1 cells; result in words): significantly enhances NK activity
